Assay results as given in patent US9839623B2, “Tricyclic compounds and methods of making and using same” (Zafgen, Inc., priority 2010, dated 2017).

molecular target: T1, recombinant human MetAP2 (Homo sapiens, UniProt P50579); assay: Inhibition of recombinant human MetAP2 activity (MAS substrate, amino acid oxidase/Amplex red fluorescence); format: biochemical; settings: manganese enzyme, 30 minutes at 25° C., pH 7.5, 0.75 mM MAS substrate, 1% DMSO
T1 construct: made in house; host or cells: Sf9 insect cells
T1 sequence (P50579 whole entry): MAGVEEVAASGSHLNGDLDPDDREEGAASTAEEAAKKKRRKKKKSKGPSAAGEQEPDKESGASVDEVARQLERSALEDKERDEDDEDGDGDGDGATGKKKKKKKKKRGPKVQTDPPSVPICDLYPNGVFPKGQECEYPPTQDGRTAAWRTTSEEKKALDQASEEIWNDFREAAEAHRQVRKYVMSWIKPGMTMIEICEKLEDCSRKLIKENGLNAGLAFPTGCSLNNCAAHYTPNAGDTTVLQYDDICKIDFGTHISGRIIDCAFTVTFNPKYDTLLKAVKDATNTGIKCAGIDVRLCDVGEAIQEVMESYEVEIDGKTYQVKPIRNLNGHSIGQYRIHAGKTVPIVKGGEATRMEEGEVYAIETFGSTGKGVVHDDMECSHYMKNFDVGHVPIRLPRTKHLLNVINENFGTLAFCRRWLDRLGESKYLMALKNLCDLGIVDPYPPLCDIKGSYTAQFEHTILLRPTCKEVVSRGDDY
Method: Compounds are tested for their capacity to inhibit recombinant human MetAP2 activity using the following assay.
Human recombinant MetAP2 expressed in Sf9 cells followed by affinity purification and EDTA treatment to remove endogenous active site cation was dialysed against MnCl2 to produce the manganese enzyme used in the assay. The assay was carried out for 30 minutes at 25° C. in 50 mM HEPES buffer containing 100 mM NaCl, pH 7.5 the presence of 0.75 mM Methionine-Alanine-Serine (MAS) substrate and 50 μg/mL amino acid oxidase using a dilution of purified MetAP2 giving >3-fold signal:noise. Cleavage of the substrate by MetAP2 and oxidation of free methionine by amino acid oxidase was detected and quantified using fluorescence generated by Amplex red (10-acetyl-3,7-dihydroxyphenoxazine) in combination with horseradish peroxidase which detects H2O2 released during the oxidation step. The fluorescent signal was detected using a multiwell fluorimeter. Compounds were diluted in DMSO prior to addition to assay buffer, the final DMSO concentration in the assay being 1%.
The IC50 is defined as the concentration at which a given compound achieves 50% inhibition of control. IC50 values are calculated using the XLfit software package (version 2.0.5).

| IC50 | SMILES |
| --- | --- |
| < 0.1 µM | CCN(CC)C/C=C\c1cc(F)ccc1S(=O)(=O)Cc1ccc2c(c1C(=O)O)OC(C)c1occc1-2 (racemic) [Example 15] |
| < 0.1 µM | CCN(CC)C/C=C\c1cc(F)ccc1S(=O)(=O)Cc1ccc2c(c1C(=O)O)OC(C)c1occc1-2 (single isomer, unassigned) [Example 18A, 7-[2-((Z)-3-diethylaminoprop-1-enyl)-4-fluorobenzenesulfonylmethyl]-4-methyl-4H-furo[2,3-c]chromene-6-carboxylic Acid] |
| 0.1 to 1 µM | CCN(CC)C/C=C\c1cc(F)ccc1S(=O)(=O)Cc1ccc2c(c1C(=O)O)OC(C)c1occc1-2 (single isomer, unassigned) [Example 18B, 7-[2-((Z)-3-diethylaminoprop-1-enyl)-4-fluorobenzenesulfonylmethyl]-4-methyl-4H-furo[2,3-c]chromene-6-carboxylic Acid] |
| < 0.1 µM | C[C@H]1Oc2c(ccc(CS(=O)(=O)c3ccccc3)c2C(=O)O)-c2ccoc21 (stereo in doubt) [Example 6, 7-(Benzenesulfonylmethyl)-4-methyl-4H-furo[2,3-c]chromene-6-carboxylic Acid] |
| < 0.1 µM | CCN(CC)C/C=C\c1cc(F)ccc1S(=O)(=O)Nc1ccc2c(c1C(=O)O)OCc1occc1-2 [Example 1, 7-[2-((Z)-3-Diethylaminoprop-1-enyl)-4-fluorobenzenesulfonylamino]-4H-furo[2,3-c]chromene-6-carboxylic Acid] |
| < 0.1 µM | O=C(O)c1c(CS(=O)(=O)c2ccccc2)ccc2c1OCc1occc1-2 [Example 2, 7-(Benzenesulfonylmethyl)-4H-furo[2,3-c]chromene-6-carboxylic Acid] |
| 0.1 to 1 µM | O=C(O)c1c(CS(=O)(=O)c2ccccc2)ccc2c1OCCc1occc1-2 [Example 3, 8-(Benzenesulfonylmethyl)-4,5-dihydro-3,6-dioxabenzo[e]azulene-7-carboxylic Acid] |
| 0.1 to 1 µM | O=C(O)c1c(CS(=O)(=O)c2ccccc2)ccc2c1ncc1occc12 [Example 4, 7-(Benzenesulfonylmethyl)-furo[2,3-c]quinoline-6-carboxylic Acid] |
| 0.1 to 1 µM | O=C(O)c1c(CS(=O)(=O)c2ccccc2)ccc2c1oc(=O)c1occc12 [Example 5, 7-(Benzenesulfonylmethyl)-4-oxo-4H-furo[2,3-c]chromene-6-carboxylic Acid] |
| < 0.1 µM | CCN(CC)C/C=C\c1cc(F)ccc1S(=O)(=O)Nc1ccc2c(c1C(=O)O)OCCc1occc1-2 [Example 7, 8-[2-((Z)-3-Diethylaminoprop-1-enyl)-4-fluorobenzenesulfonylamino]-4,5-dihydro-3,6-dioxabenzo[e]azulene-7-carboxylic Acid] |
| < 0.1 µM | CCN(CC)C/C=C\c1cc(F)ccc1S(=O)(=O)Nc1ccc2c(ncc3occc32)c1C(=O)O [Example 8, 7-[2-((Z)-3-Diethylaminoprop-1-enyl)-4-fluorobenzenesulfonylamino]-furo[2,3-c]quinoline-6-carboxylic Acid] |
| < 0.1 µM | CCN(CC)CCCc1cc(F)ccc1S(=O)(=O)Nc1ccc2c(c1C(=O)O)OCc1occc1-2 [Example 9, 7-[2-(3-Diethylaminopropyl)-4-fluorobenzenesulfonylamino]-4H-furo[2,3-c]chromene-6-carboxylic Acid] |
| < 0.1 µM | CCNC/C=C\c1cc(F)ccc1S(=O)(=O)Nc1ccc2c(c1C(=O)O)OCc1occc1-2 [Example 10, 7-[2-((Z)-3-Ethylaminoprop-1-enyl)-4-fluorobenzenesulfonylamino]-4H-furo[2,3-c]chromene-6-carboxylic Acid] |
| < 0.1 µM | CCN(CC)CCCc1cc(F)ccc1S(=O)(=O)Nc1ccc2c(c1C(=O)O)OCCc1occc1-2 [Example 11, 8-[2-(3-Diethylaminopropyl)-4-fluorobenzenesulfonylamino]-4,5-dihydro-3,6-dioxabenzo[e]azulene-7-carboxylic Acid] |
| < 0.1 µM | O=C(O)c1c(NS(=O)(=O)c2ccc(F)cc2/C=C\CN2CCOCC2)ccc2c1OCc1occc1-2 [Example 12, 7-{4-Fluoro-2-[(Z)-3-(morpholin-4-yl)prop-1-enyl]benzenesulfonylamino}-4H-furo[2,3-c]chromene-6-carboxylic Acid] |
| < 0.1 µM | O=C(O)c1c(NS(=O)(=O)c2ccc(F)cc2/C=C\CN2CCCC2)ccc2c1OCc1occc1-2 [Example 13, 7-{4-Fluoro-2-[(Z)-3-(pyrrolidin-1-yl)prop-1-enyl]benzenesulfonylamino}-4H-furo[2,3-c]chromene-6-carboxylic Acid] |
| < 0.1 µM | CCN(CC)C/C=C\c1cc(F)ccc1S(=O)(=O)Nc1ccc2c(oc(=O)c3occc32)c1C(=O)O [Example 14] |
| < 0.1 µM | CCN(CC)CCCc1cc(F)ccc1S(=O)(=O)Nc1ccc2c(ncc3occc32)c1C(=O)O [Example 16, 7-[2-(3-Diethylaminopropyl)-4-fluorobenzenesulfonylamino]-furo[2,3-c]quinoline-6-carboxylic Acid] |
| < 0.1 µM | CCN(CC)C/C=C\c1cc(F)ccc1S(=O)(=O)Nc1ccc2c(c1C(=O)O)OCc1cnsc1-2 [Example 17, 7-[2-((Z)-3-Diethylaminoprop-1-enyl)-4-fluorobenzenesulfonylamino]-4H-chromeno[3,4-d]isothiazole-6-carboxylic Acid] |
| < 0.1 µM | CCN(CC)C/C=C\c1ccccc1S(=O)(=O)Nc1ccc2c(c1C(=O)O)OCc1occc1-2 [Example 19] |
| < 0.1 µM | O=C(O)c1c(NS(=O)(=O)c2ccc(F)cc2/C=C\CN2CC[C@@H](O)C2)ccc2c1OCc1occc1-2 [Example 20, 7-{4-Fluoro-2-[(Z)-3-((R)-3-hydroxypyrrolidin-1-yl)-prop-1-enyl]-benzenesulfonylamino}-4H-furo[2,3-c]chromene-6-carboxylic Acid] |
| < 0.1 µM | O=C(O)c1c(NS(=O)(=O)c2ccc(F)cc2/C=C\CN2CC[C@H](O)C2)ccc2c1OCc1occc1-2 [Example 21, 7-{4-Fluoro-2-[(Z)-3-((S)-3-hydroxypyrrolidin-1-yl)-prop-1-enyl]-benzenesulfonylamino}-4H-furo[2,3-c]chromene-6-carboxylic Acid] |
| < 0.1 µM | CCN(CC)C/C=C\c1cc(F)ccc1S(=O)(=O)Nc1ccc2c([nH]c(=O)c3occc32)c1C(=O)O [Example 22, 7-[2-((Z)-3-Diethylaminoprop-1-enyl)-4-fluorobenzenesulfonylamino]-4-oxo-4,5-dihydrofuro[2,3-c]quinoline-6-carboxylic Acid] |
| < 0.1 µM | O=C(O)c1c(NS(=O)(=O)c2ccc(F)cc2/C=C\CN2CCC2)ccc2c1OCc1occc1-2 [Example 23, 7-{2-[(Z)-3-(Azetidin-1-yl)prop-1-enyl]-4-fluorobenzenesulfonyl-amino}-4H-furo[2,3-c]chromene-6-carboxylic Acid] |
| < 0.1 µM | O=C(O)c1c(NS(=O)(=O)c2ccc(F)cc2/C=C\CN2CC(O)C2)ccc2c1OCc1occc1-2 [Example 24, 7-{4-Fluoro-2-[(Z)-3-(3-hydroxyazetidin-1-yl)-prop-1-enyl]-benzenesulfonylamino}-4H-furo[2,3-c]chromene-6-carboxylic Acid] |
| < 0.1 µM | CCN(CC)C/C=C\c1cc(F)ccc1S(=O)(=O)Nc1ccc2c(c1C(=O)O)OCc1occ(F)c1-2 [Example 25, 7-[2-((Z)-3-Diethylaminoprop-1-enyl)-4-fluorobenzenesulfonylamino]-1-fluoro-4H-furo[2,3-c]chromene-6-carboxylic Acid] |
| < 0.1 µM | CCN(CC)C/C=C/c1cc(F)ccc1S(=O)(=O)Nc1ccc2c(c1C(=O)O)OCc1occc1-2 [Example 26, 7-[2-((E)-3-Diethylaminoprop-1-enyl)-4-fluorobenzenesulfonylamino]-4H-furo[2,3-c]chromene-6-carboxylic Acid] |
